Assay results published in patent publication US20260232658A1, “AZETIDINYL BENZOXAZOLE COMPOUNDS AND THEIR USE AS MER AND AXL INHIBITORS” (DONG-A ST CO., LTD., priority 2022, published 2026).

Tests used:
human MER (528-end) = target: T1, human MER (528-end) (Homo sapiens, UniProt Q12866); assay: HTRF kinase activity biochemical assay, MER; details: recombinant kinase, 10 uM ATP, 30 minutes pre-incubation; read-out: HTRF MERTK IC50;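 note: phosphorylation of a biotin-tagged tyrosine kinase substrate detected by Eu3+-cryptate antibody and streptavidin-XL665 time-resolved fluorescence, read after 1 h at room temperature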
T1 construct: human MER (528-end); purchased Carnabio, Japan
T1 sequence (Q12866 528-999 limits assumed): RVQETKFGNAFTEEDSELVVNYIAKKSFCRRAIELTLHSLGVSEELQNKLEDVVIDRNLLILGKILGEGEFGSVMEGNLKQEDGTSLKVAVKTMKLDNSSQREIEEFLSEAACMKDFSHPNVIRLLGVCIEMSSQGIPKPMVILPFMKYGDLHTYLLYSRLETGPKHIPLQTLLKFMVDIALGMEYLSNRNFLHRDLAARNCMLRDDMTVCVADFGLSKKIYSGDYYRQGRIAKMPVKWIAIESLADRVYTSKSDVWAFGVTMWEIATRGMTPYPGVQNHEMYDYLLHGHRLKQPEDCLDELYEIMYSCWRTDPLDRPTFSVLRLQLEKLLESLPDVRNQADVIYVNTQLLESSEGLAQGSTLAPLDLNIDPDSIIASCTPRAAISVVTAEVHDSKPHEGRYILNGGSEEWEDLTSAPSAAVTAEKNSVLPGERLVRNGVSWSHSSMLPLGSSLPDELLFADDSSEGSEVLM

human AXL (473-end) = target: T2, human AXL (473-end) (Homo sapiens, UniProt P30530); assay: HTRF kinase activity biochemical assay, AXL; details: recombinant kinase, 10 uM ATP, 30 minutes pre-incubation; read-out: HTRF AXL IC50;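 note: phosphorylation of a biotinylated tyrosine kinase substrate detected via Eu3+-cryptate anti-TK antibody and streptavidin-XL665, fluorescence read after a 1 h incubation at room temperature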
T2 construct: human AXL (473-end); purchased SignalChem, Canada
T2 sequence (P30530 473-894 limits assumed): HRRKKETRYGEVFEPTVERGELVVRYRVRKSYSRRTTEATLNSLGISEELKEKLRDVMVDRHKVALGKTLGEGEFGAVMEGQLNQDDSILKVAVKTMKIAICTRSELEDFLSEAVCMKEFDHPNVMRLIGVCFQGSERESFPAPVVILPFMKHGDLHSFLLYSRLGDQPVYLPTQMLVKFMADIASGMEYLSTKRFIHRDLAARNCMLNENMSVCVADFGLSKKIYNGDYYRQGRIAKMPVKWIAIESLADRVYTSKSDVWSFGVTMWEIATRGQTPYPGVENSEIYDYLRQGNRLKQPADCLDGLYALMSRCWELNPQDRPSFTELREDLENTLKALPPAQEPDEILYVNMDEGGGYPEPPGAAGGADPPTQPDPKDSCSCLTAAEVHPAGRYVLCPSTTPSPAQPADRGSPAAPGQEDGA

TYRO3 (455-end) = target: T3, TYRO3 (455-end) (Homo sapiens, UniProt Q06418); assay: HTRF kinase activity biochemical assay, TYRO3; details: recombinant kinase, 10 uM ATP, 30 minutes pre-incubation; read-out: HTRF TYRO IC50;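 note: biotinylated tyrosine kinase substrate phosphorylation detected via streptavidin-XL665 and Eu3+-cryptate anti-phospho antibody time-resolved fluorescence, read after 1 h detection at room temperature, 384-well format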
T3 construct: TYRO3 (455-end); purchased SignalChem, Canada
T3 sequence (Q06418 455-890 limits assumed): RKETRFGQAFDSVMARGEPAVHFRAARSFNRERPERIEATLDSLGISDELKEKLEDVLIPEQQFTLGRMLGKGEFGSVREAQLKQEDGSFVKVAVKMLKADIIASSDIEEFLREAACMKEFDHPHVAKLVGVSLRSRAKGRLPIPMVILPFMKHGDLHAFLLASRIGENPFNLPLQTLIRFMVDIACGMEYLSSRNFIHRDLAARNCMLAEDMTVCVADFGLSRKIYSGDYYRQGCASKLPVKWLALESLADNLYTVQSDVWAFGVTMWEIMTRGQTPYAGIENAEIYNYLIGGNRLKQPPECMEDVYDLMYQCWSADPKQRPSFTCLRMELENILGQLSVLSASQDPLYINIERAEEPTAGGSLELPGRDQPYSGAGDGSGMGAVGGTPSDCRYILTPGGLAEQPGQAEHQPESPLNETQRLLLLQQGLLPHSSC

## Cn1cc(Nc2ncc(C3CN(c4nc5ccc(OCCC(C)(C)OC(=O)CN)cc5o4)C3)nc2C(N)=O)cn1 [Example 95, 4-{[2-(3-{6-carbamoyl-5-[(1-methyl-1H-pyrazol-4-yl)amino]pyrazin-2-yl}azetidin-1-yl)-1,3-benzoxazol-6-yl]oxy}-2-methylbutan-2-yl glycinate]
Human MER (528-end)
  IC50: < 1 nM
Human AXL (473-end)
  IC50: 3 nM
TYRO3 (455-end)
  IC50: 280 nM

## CCOC(C)(C)c1ccc2nc(N3CC(c4cnc(Nc5cnn(C)c5)c(C(N)=O)n4)C3)oc2c1 [Example 101, 6-{1-[6-(2-ethoxypropan-2-yl)-1,3-benzoxazol-2-yl]azetidin-3-yl}-3-[(1-methyl-1H-pyrazol-4-yl)amino]pyrazine-2-carboxamide]
Human MER (528-end)
  IC50: 8 nM
Human AXL (473-end)
  IC50: 12 nM
TYRO3 (455-end)
  IC50: 1490 nM

## Cn1cc(Nc2ncc(C3CN(c4nc5ccc(OCC6COC6)cc5o4)C3)nc2C(N)=O)cn1 [Example 41, 3-[(1-methyl-1H-pyrazol-4-yl)amino]-6-(1-{6-[(oxetan-3-yl)methoxy]-1,3-benzoxazol-2-yl}azetidin-3-yl)pyrazine-2-carboxamide]
Human MER (528-end)
  IC50: < 1 nM
Human AXL (473-end)
  IC50: 2 nM
TYRO3 (455-end)
  IC50: 210 nM

## COC/C=C/c1ccc2nc(N3CC(c4cnc(Nc5cnn(C)c5)c(C(N)=O)n4)C3)oc2c1 [Example 22, 6-(1-{6-[(1E)-3-methoxyprop-1-en-1-yl]-1,3-benzoxazol-2-yl}azetidin-3-yl)-3-[(1-methyl-1H-pyrazol-4-yl)amino]pyrazine-2-carboxamide]
Human MER (528-end)
  IC50: < 1 nM
Human AXL (473-end)
  IC50: < 1 nM
TYRO3 (455-end)
  IC50: 90 nM

## Cn1cc(Nc2ncc(C3CN(c4nc5ccc(OC[C@H]6C[C@H]6CO)cc5o4)C3)nc2C(N)=O)cn1 [Example 58, 6-[1-(6-{1[(1S,2R)-2-(hydroxymethyl)cyclopropyl]methoxy}-1,3-benzoxazol-2-yl)azetidin-3-yl]-3-[(1-methyl-1H-pyrazol-4-yl)amino]pyrazine-2-carboxamide]
Human MER (528-end)
  IC50: < 1 nM
Human AXL (473-end)
  IC50: 1 nM
TYRO3 (455-end)
  IC50: 33 nM

## Cn1cc(Nc2ncc(C3CN(c4nc5ccc(OCC(C)(C)OC(=O)CN)cc5o4)C3)nc2C(N)=O)cn1 [Example 113, 1-{[2-(3-{6-carbamoyl-5-[(1-methyl-1H-pyrazol-4-yl)amino]pyrazin-2-yl}azetidin-1-yl)-1,3-benzoxazol-6-yl]oxy}-2-methylpropan-2-yl glycinate]
Human MER (528-end)
  IC50: < 1 nM
Human AXL (473-end)
  IC50: 1 nM
TYRO3 (455-end)
  IC50: 160 nM

## Cn1cc(Nc2ncc(C3CN(c4nc5ccc(C6CCOC6)cc5o4)C3)nc2C(N)=O)cn1 (stereo not drawn) [Example 15, 3-[(1-methyl-1H-pyrazol-4-yl)amino]-6-{1-[6-(oxolan-3-yl)-1,3-benzoxazol-2-yl]azetidin-3-yl}pyrazine-2-carboxamide]
Human MER (528-end)
  IC50: 3 nM
Human AXL (473-end)
  IC50: 9 nM
TYRO3 (455-end)
  IC50: 550 nM

## Cn1cc(Nc2ncc(C3CN(c4nc5ccc(C6=CCCCC6)cc5o4)C3)nc2C(N)=O)cn1 [Example 6, 6-{1-[6-(cyclohex-1-en-1-yl)-1,3-benzoxazol-2-yl]azetidin-3-yl}-3-[(1-methyl-1H-pyrazol-4-yl)amino]pyrazine-2-carboxamide]
Human MER (528-end)
  IC50: < 1 nM
Human AXL (473-end)
  IC50: 1.04 nM
TYRO3 (455-end)
  IC50: 72 nM

## Cn1cc(Nc2ncc(C3CN(c4nc5ccc(C6CCCC6)cc5o4)C3)nc2C(N)=O)cn1 [Example 10, 6-[1-(6-cyclopentyl-1,3-benzoxazol-2-yl)azetidin-3-yl]-3-[(1-methyl-1H-pyrazol-4-yl)amino]pyrazine-2-carboxamide]
Human MER (528-end)
  IC50: < 1 nM
Human AXL (473-end)
  IC50: < 1 nM
TYRO3 (455-end)
  IC50: 110 nM

## Cc1ccc2nc(N3CC(c4ccc(Nc5cnn(C)c5)c(C(N)=O)n4)C3)oc2c1 [Example 78, 6-[1-(6-methyl-1,3-benzoxazol-2-yl)azetidin-3-yl]-3-[(1-methyl-1H-pyrazol-4-yl)amino]pyridine-2-carboxamide]
Human MER (528-end)
  IC50: 2 nM
Human AXL (473-end)
  IC50: 6 nM
TYRO3 (455-end)
  IC50: 270 nM

## COCCOc1ccc(-c2ccc3nc(N4CC(c5cnc(Nc6cnn(C)c6)c(C(N)=O)n5)C4)oc3c2)cc1 [Example 100, 6-(1-{6-[4-(2-methoxyethoxy)phenyl]-1,3-benzoxazol-2-yl}azetidin-3-yl)-3-[(1-methyl-1H-pyrazol-4-yl)amino]pyrazine-2-carboxamide]
Human MER (528-end)
  IC50: 1 nM
Human AXL (473-end)
  IC50: 4 nM
TYRO3 (455-end)
  IC50: 120 nM

## CC1(C)OCC(Cn2cc(Nc3ncc(C4CN(c5nc6ccc(F)cc6o5)C4)nc3C(N)=O)cn2)O1 (stereo not drawn) [Example 36D, 3-({1-[(2,2-dimethyl-1,3-dioxolan-4-yl)methyl]-1H-pyrazol-4-yl}amino)-6-[1-(6-fluoro-1,3-benzoxazol-2-yl)azetidin-3-yl]pyrazine-2-carboxamide]
Human MER (528-end)
  IC50: 3 nM
Human AXL (473-end)
  IC50: 10 nM
TYRO3 (455-end)
  IC50: 430 nM

## Cn1cnc(-c2ccc3nc(N4CC(c5cnc(Nc6cnn(C)c6)c(C(N)=O)n5)C4)oc3c2)c1 [Example 105, 6-{1-[6-(1-methyl-1H-imidazol-4-yl)-1,3-benzoxazol-2-yl]azetidin-3-yl}-3-[(1-methyl-1H-pyrazol-4-yl)amino]pyrazine-2-carboxamide]
Human MER (528-end)
  IC50: < 1 nM
Human AXL (473-end)
  IC50: 5 nM
TYRO3 (455-end)
  IC50: 53 nM

## Cn1cc(Nc2ccc(C3CN(c4nc5ccc(OCCC(C)(C)OP(=O)(O)O)cc5o4)C3)nc2C(N)=O)cn1 [Example 109, 4-{[2-(3-{6-carbamoyl-5-[(1-methyl-1H-pyrazol-4-yl)amino]pyridin-2-yl}azetidin-1-yl)-1,3-benzoxazol-6-yl]oxy}-2-methylbutan-2-yl dihydrogen phosphate]
Human MER (528-end)
  IC50: 27 nM
Human AXL (473-end)
  IC50: 78 nM
TYRO3 (455-end)
  IC50: 2200 nM

## Cn1cc(Nc2ncc(C3CN(c4nc5ccc(OCCCc6ccccc6)cc5o4)C3)nc2C(N)=O)cn1 [Example 60, 3-[(1-methyl-1H-pyrazol-4-yl)amino]-6-{1-[6-(3-phenylpropoxy)-1,3-benzoxazol-2-yl]azetidin-3-yl}pyrazine-2-carboxamide]
Human MER (528-end)
  IC50: < 1 nM
Human AXL (473-end)
  IC50: 1 nM
TYRO3 (455-end)
  IC50: 100 nM

## Cn1cc(Nc2ncc(C3CN(c4nc5ccc(OCC(=O)N6CCCC6)cc5o4)C3)nc2C(N)=O)cn1 [Example 49, 3-[(1-methyl-1H-pyrazol-4-yl)amino]-6-(1-{6-[2-oxo-2-(pyrrolidin-1-yl)ethoxy]-1,3-benzoxazol-2-yl}azetidin-3-yl)pyrazine-2-carboxamide]
Human MER (528-end)
  IC50: 4 nM
Human AXL (473-end)
  IC50: 11 nM
TYRO3 (455-end)
  IC50: 2030 nM

## Cn1cc(Nc2ncc(C3CN(c4nc5ccc(C6CCCCC6)cc5o4)C3)nc2C(N)=O)cn1 [Example 7, 6-[1-(6-cyclohexyl-1,3-benzoxazol-2-yl)azetidin-3-yl]-3-[(1-methyl-1H-pyrazol-4-yl)amino]pyrazine-2-carboxamide]
Human MER (528-end)
  IC50: 3 nM
Human AXL (473-end)
  IC50: 6 nM
TYRO3 (455-end)
  IC50: 680 nM

## CC(C)(O)CCOc1ccc2nc(N3CC(c4cnc(Nc5cnn(C(C)(C)C)c5)c(C(N)=O)n4)C3)oc2c1 [Example 94, 3-[(1-tert-butyl-1H-pyrazol-4-yl)amino]-6-{1-[6-(3-hydroxy-3-methylbutoxy)-1,3-benzoxazol-2-yl]azetidin-3-yl}pyrazine-2-carboxamide]
Human MER (528-end)
  IC50: < 1 nM
Human AXL (473-end)
  IC50: 3 nM
TYRO3 (455-end)
  IC50: 910 nM

## Cn1cc(Nc2ncc(C3CN(c4nc5ccc(OC[C@H]6COCCO6)cc5o4)C3)nc2C(N)=O)cn1 [Example 48, 6-[1-(6-{[(2R)-1,4-dioxan-2-yl]methoxy}-1,3-benzoxazol-2-yl)azetidin-3-yl]-3-[(1-methyl-1H-pyrazol-4-yl)amino]pyrazine-2-carboxamide]
Human MER (528-end)
  IC50: 2 nM
Human AXL (473-end)
  IC50: 3 nM
TYRO3 (455-end)
  IC50: 230 nM

## COC[C@H]1CCCN1C(=O)c1ccc2nc(N3CC(c4cnc(Nc5cnn(C)c5)c(C(N)=O)n4)C3)oc2c1 [Example 64, 6-(1-{6-[(2R)-2-(methoxymethyl)pyrrolidine-1-carbonyl]-1,3-benzoxazol-2-yl}azetidin-3-yl)-3-[(1-methyl-1H-pyrazol-4-yl)amino]pyrazine-2-carboxamide]
Human MER (528-end)
  IC50: < 1 nM
Human AXL (473-end)
  IC50: 5 nM
TYRO3 (455-end)
  IC50: 37 nM
